Reference: patent US6737383B1, “Herbicidal oxadiazolidines” (priority 1999, dated 2004)

What was measured:
pigweed = test: Test B pre/postemergence pigweed; assay type: in vivo, Amaranthus retroflexus
Outline: (§1)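 Response is a visual 0-to-10 score relative to untreated plants, where 0 means no effect and 10 means complete control, taken twelve to sixteen days after application. Treatments went onto soil at planting and onto foliage of 1- to 4-leaf plants, using a surfactant-containing non-phytotoxic solvent.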

crabgrass = test: Test B pre/postemergence crabgrass; assay type: in vivo, Digitaria sanguinalis
Outline: as §1

bamyardgrass = test: Test B flood test barnyardgrass; assay type: in vivo, Echinochloa crus-galli
Outline: (§2)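 Read-out is a visual response score from 0 (no effect) to 10 (complete control), assigned by comparison with untreated controls. Treatment was applied at the 2-leaf stage, and plants stayed in the greenhouse for twelve to sixteen days before scoring.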

rape = test: Test B pre/postemergence rape; assay type: in vivo, Brassica napus
Outline: as §1

sugar beet = test: Test B pre/postemergence sugar beet; assay type: in vivo, Beta vulgaris
Outline: as §1

cocklebur = test: Test B pre/postemergence cocklebur; assay type: in vivo, Xanthium strumarium
Outline: as §1

morningglory = test: Test B pre/postemergence morningglory; assay type: in vivo, Ipomoea hederacea
Outline: as §1

soybean = test: Test B pre/postemergence soybean; assay type: in vivo, Glycine max
Outline: as §1

wild oat = test: Test B pre/postemergence wild oat; assay type: in vivo, Avena fatua
Outline: as §1

purple nutsedge = test: Test B pre/postemergence purple nutsedge; assay type: in vivo, Cyperus rotundus
Outline: as §1

wheat = test: Test B pre/postemergence wheat; assay type: in vivo, Triticum aestivum
Outline: as §1

velvetleaf = test: Test B pre/postemergence velvetleaf; assay type: in vivo, Abutilon theophrasti
Outline: as §1

duck salad = test: Test B flood test duck salad; assay type: in vivo, Heteranthera limosa
Outline: as §2

rice = test: Test B flood test rice; assay type: in vivo, Oryza sativa
Outline: as §2

corn = test: Test B pre/postemergence corn; assay type: in vivo, Zea mays
Outline: as §1

giant foxtail = test: Test B pre/postemergence giant foxtail; assay type: in vivo, Setaria faberii
Outline: as §1

[1] = Postemergence, Rate 31 g/ha, visual rating, scale 0 to 10 (0 no effect, 10 complete control)
[2] = Preemergence, Rate 62 g/ha, scale of 0 to 10 where 0 is no effect and 10 is complete control
[3] = Preemergence, Rate 250 g/ha, scale of 0 to 10 where 0 is no effect and 10 is complete control
[4] = Rate 62 g/ha, Postemergence, scale 0 to 10 (0 no effect, 10 complete control)
[5] = Rate 125 g/ha, Postemergence, scale of 0 to 10 where 0 is no effect and 10 is complete control
[6] = Rate 250 g/ha, Postemergence, scale of 0 to 10 where 0 is no effect and 10 is complete control
[7] = Preemergence, Rate 31 g/ha, visual rating, scale 0 to 10 (0 no effect, 10 complete control)
[8] = Rate 31 g/ha, Pre-emergence section (flood test species), scale 0 to 10
[9] = Rate 62 g/ha, headed Pre-emergence (flood test species), scale 0 to 10 (0 no effect, 10 complete control)
[10] = Rate 125 g/ha, Pre-emergence, flood test species, scale 0 to 10 where 0 is no effect and 10 is complete control
[11] = Rate 250 g/ha, Pre-emergence, flood-test species, scale 0 to 10, 0 is no effect, 10 is complete control

Cc1cccc(C)c1-n1c(=O)on(C(=O)N(c2ccc(Cl)cc2Cl)C2CCC2)c1=O [Compound 318]
5: Plant response rating, Cocklebur (cocklebur; [6])
0: Redroot pigweed plant response rating (pigweed; [1]) | Redroot pigweed plant response rating (pigweed; [2]) | Redroot pigweed plant response rating (0 to 10 scale) (pigweed; Preemergence, Rate 125 g/ha) | Redroot pigweed plant response rating (pigweed; [3]) | Redroot pigweed plant response rating (pigweed; [4]) | Redroot pigweed plant response rating (pigweed; [5]) | Plant response rating, Redroot pigweed (pigweed; [6]) | Crabgrass plant response rating (crabgrass; [1]) | Crabgrass plant response rating (crabgrass; [7]) | Crabgrass plant response rating (crabgrass; [2]) | Crabgrass plant response rating (0 to 10 scale) (crabgrass; Preemergence, Rate 125 g/ha) | Crabgrass plant response rating (crabgrass; [3]) | Crabgrass plant response rating (crabgrass; [4]) | Crabgrass plant response rating (crabgrass; [5]) | Plant response rating, Crabgrass (crabgrass; [6]) | Barnyardgrass plant response rating (bamyardgrass; [8]) | Barnyardgrass plant response rating (bamyardgrass; [9]) | Barnyardgrass plant response rating (bamyardgrass; [10]) | Barnyardgrass plant response rating (bamyardgrass; [11]) | Rape plant response rating (rape; [1]) | Rape plant response rating (rape; [2]) | Rape plant response rating (0 to 10 scale) (rape; Preemergence, Rate 125 g/ha) | Rape plant response rating (rape; [3]) | Rape plant response rating (rape; [4]) | Rape plant response rating (rape; [5]) | Plant response rating, Rape (rape; [6]) | Sugarbeets plant response rating (sugar beet; [1]) | Sugarbeets plant response rating (sugar beet; [2]) | Sugarbeets plant response rating (0 to 10 scale) (sugar beet; Preemergence, Rate 125 g/ha) | Sugarbeets plant response rating (sugar beet; [3]) | Sugarbeets plant response rating (sugar beet; [4]) | Sugarbeets plant response rating (sugar beet; [5]) | Plant response rating, Sugarbeets (sugar beet; [6]) | Cocklebur plant response rating (cocklebur; [1]) | Cocklebur plant response rating (cocklebur; [7]) | Cocklebur plant response rating (cocklebur; [2]) | Cocklebur plant response rating (0 to 10 scale) (cocklebur; Preemergence, Rate 125 g/ha) | Cocklebur plant response rating (cocklebur; [3]) | Cocklebur plant response rating (cocklebur; [4]) | Cocklebur plant response rating (cocklebur; [5]) | Morningglory plant response rating (morningglory; [1]) | Morningglory plant response rating (morningglory; [2]) | Morningglory plant response rating (0 to 10 scale) (morningglory; Preemergence, Rate 125 g/ha) | Morningglory plant response rating (morningglory; [3]) | Morningglory plant response rating (morningglory; [4]) | Morningglory plant response rating (morningglory; [5]) | Soybean plant response rating (soybean; [1]) | Soybean plant response rating (soybean; [2]) | Soybean plant response rating (0 to 10 scale) (soybean; Preemergence, Rate 125 g/ha) | Soybean plant response rating (soybean; [3]) | Soybean plant response rating (soybean; [4]) | Soybean plant response rating (soybean; [5]) | Wild oats plant response rating (wild oat; [1]) | Wild oats plant response rating (wild oat; [2]) | Wild oats plant response rating (0 to 10 scale) (wild oat; Preemergence, Rate 125 g/ha) | Wild oats plant response rating (wild oat; [3]) | Wild oats plant response rating (wild oat; [4]) | Wild oats plant response rating (wild oat; [5]) | Plant response rating, Wild oats (wild oat; [6]) | Nutsedge plant response rating (purple nutsedge; [1]) | Nutsedge plant response rating (purple nutsedge; [2]) | Nutsedge plant response rating (0 to 10 scale) (purple nutsedge; Preemergence, Rate 125 g/ha) | Nutsedge plant response rating (purple nutsedge; [4]) | Nutsedge plant response rating (purple nutsedge; [5]) | Plant response rating, Nutsedge (purple nutsedge; [6]) | Wheat plant response rating (wheat; [1]) | Wheat plant response rating (wheat; [2]) | Wheat plant response rating (0 to 10 scale) (wheat; Preemergence, Rate 125 g/ha) | Wheat plant response rating (wheat; [3]) | Wheat plant response rating (wheat; [4]) | Wheat plant response rating (wheat; [5]) | Plant response rating, Wheat (wheat; [6]) | Velvetleaf plant response rating (velvetleaf; [1]) | Velvetleaf plant response rating (velvetleaf; [2]) | Velvetleaf plant response rating (0 to 10 scale) (velvetleaf; Preemergence, Rate 125 g/ha) | Velvetleaf plant response rating (velvetleaf; [3]) | Velvetleaf plant response rating (velvetleaf; [4]) | Velvetleaf plant response rating (velvetleaf; [5]) | Plant response rating, Velvetleaf (velvetleaf; [6]) | Ducksalad plant response rating (duck salad; [8]) | Ducksalad plant response rating (duck salad; [9]) | Ducksalad plant response rating (duck salad; [10]) | Ducksalad plant response rating (duck salad; [11]) | Rice plant response rating (rice; [8]) | Rice plant response rating (rice; [9]) | Rice plant response rating (rice; [10]) | Rice plant response rating (rice; [11]) | Corn plant response rating (corn; [1]) | Corn plant response rating (corn; [7]) | Corn plant response rating (corn; [2]) | Corn plant response rating (0 to 10 scale) (corn; Preemergence, Rate 125 g/ha) | Corn plant response rating (corn; [3]) | Corn plant response rating (corn; [4]) | Corn plant response rating (corn; [5]) | Plant response rating, Corn (corn; [6]) | Giant foxtail plant response rating (giant foxtail; [1]) | Giant foxtail plant response rating (giant foxtail; [7]) | Giant foxtail plant response rating (giant foxtail; [2]) | Giant foxtail plant response rating (0 to 10 scale) (giant foxtail; Preemergence, Rate 125 g/ha) | Giant foxtail plant response rating (giant foxtail; [3]) | Giant foxtail plant response rating (giant foxtail; [4]) | Giant foxtail plant response rating (giant foxtail; [5]) | Plant response rating, Giant foxtail (giant foxtail; [6])
1: Plant response rating, Soybean (soybean; [6])
3: Plant response rating, Morningglory (morningglory; [6])
